Results as given in patent US6835382B2, “Ii peptide therapeutics to enhance antigen presentation” (University of Massachusetts, priority 1996, dated 2004).
Non-standard residues stand in square brackets, D forms with d. Orn = NCCC[C@H](N)C(=O)O

Assays:
HLA-DR1 molecules [1] = assay: release of biotin-labeled hMBP(90-102) from HLA-DR1 in the presence of unlabeled hMBP (assay II); format: binding, human
[2] = biological target: T1, murine E^d MHC class II allele (Mus musculus, UniProt P01904+P01915); assay: simultaneous assay, E^d allele (A20 APC, G28.C9 T hybridoma, HEL106-116; HT-2 [3H]TdR readout); format: cell-based; design: The A20 and CH27 B cell lymphoma lines express H-2^d and H-2^k alleles, respectively; endogenous in cells; host or cells: A20 B cell lymphoma (mitomycin C-treated or paraformaldehyde-fixed)
T1 sequence (P01904 26-255): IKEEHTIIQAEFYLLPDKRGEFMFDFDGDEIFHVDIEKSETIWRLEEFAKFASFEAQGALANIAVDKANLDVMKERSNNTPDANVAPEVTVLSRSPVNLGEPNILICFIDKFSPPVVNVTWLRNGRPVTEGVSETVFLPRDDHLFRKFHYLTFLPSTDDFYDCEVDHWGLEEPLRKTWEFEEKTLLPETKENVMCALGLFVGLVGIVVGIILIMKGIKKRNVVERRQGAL
T1 sequence (P01915 27-264 limits assumed): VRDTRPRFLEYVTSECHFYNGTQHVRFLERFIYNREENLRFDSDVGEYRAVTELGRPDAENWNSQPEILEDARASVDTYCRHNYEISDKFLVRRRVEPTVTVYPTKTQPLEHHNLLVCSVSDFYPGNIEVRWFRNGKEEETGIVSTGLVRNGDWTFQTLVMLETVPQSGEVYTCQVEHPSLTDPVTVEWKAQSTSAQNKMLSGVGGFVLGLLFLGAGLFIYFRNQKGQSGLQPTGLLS
Experimental: (§1) Examples 1-4 (Tables 1-18) will be briefly considered in order to establish the concept of tolerance discussed above. These examples describe experimental results observed in the so-called “simultaneous” assay. In the simultaneous assay four principle components are cultured together for a 24 hour period. The components of this culture, which are added simultaneously, are: (a) an antigenic peptide characterized by the ability to bind specifically into the antigenic peptide binding groove of an MHC class II molecule, (b) mitomycin C-treated, MHC class II-positive antigen presenting cells (APC) bearing the MHC class II allele required for binding of the specific antigenic peptide, and presentation of the specific antigenic peptide to the antigenic peptide-specific T cell hybridoma, (c) an effector compound of the present invention, and (d) an MHC class II allele-restricted T cell hybridoma specific for the antigenic peptide and the MHC class II allele restricting its presentation. Following incubation of this primary culture, an aliquot of its supernatant is transferred into a second culture well for incubation with an interleukin-dependent lymphoblastoid cell line. The degree of stimulation of that second, indicator cell by the interleukins which had been released from the activated T cell hybridoma in the primary culture is measured by quantitating tritiated thymidine deoxyribose {[^3H]TdR} uptake into the DNA of the HT-2 indicator cells of that second culture.
(§2) In the “simultaneous assay” the four components of the assay are cultured together for a 24 h period. The components of this primary culture, added at the same time or simultaneously, are: (a) the antigenic peptide, (b) mitomycin C-treated, MHC class II-positive antigen presenting cells (APC) with the MHC class II allele required for binding of the specific antigenic peptide and its presentation to the antigenic peptide-specific T cell hybridoma, (c) an AE101 series effector peptide, and (d) MHC class II allele-restricted T cell hybridoma specific for the antigenic peptide and the MHC class II allele restricting its presentation. At the end of the incubation of this primary culture, an aliquot of its supernatant is transferred into a second culture well for incubation with an interleukin-dependent lymphoblastoid cell line. The degree of stimulation of that second, indicator cell by the interleukins which had been released from the activated T cell hybridoma in the primary culture is measured by quantitating tritiated thymidine deoxyribose {[^3H]TdR} uptake into the DNA of the HT-2 indicator cells of that second culture.
(§3) For these various assays, the following antigenic peptides were used: HEL11-25, hen egg lysozyme 11-25, AMKRHGLDNYRGYSL(A^d) (SEQ ID NO:5); HEL46-61, hen egg lysozyme 46-61, NTDGSTDYGILQINSR(Ak) (SEQ ID NO:6); HEL106-116, hen egg lysozyme 106-116, NAWVAWRNRCK (E^d) (SEQ ID NO:7); PGCC81-104, pigeon cytochrome c 81-104, […] (Ek) (SEQ ID NO:8), and THMCC82-103, tobacco hornworm moth cytochrome c 82-103, […] (Ek) (SEQ ID NO:9). AE101 series peptides were obtained from commercial sources. In general, the purity and composition of each peptide was confirmed by HPLC separation and mass spectrometry. The native protein antigens were HEL, hen egg lysozyme, and PGCC, pigeon cytochrome C. They were obtained from commercial sources.
(§4) For the experiments of these Examples, several T cell hybridomas, which are specific for certain antigenic peptides, were used. The TPc9.1 T hybridoma is specific for pigeon cytochrome C 81-104 peptide presented on the murine class II MHC allele E^k. The TPc9.1 hybridoma responds heteroclitically to tobacco hornworm moth cytochrome c 82-103 on E^k. The 3A9 T hybridoma is specific for hen egg lysozyme 46-61 on A^k. The 9.30.B2 hybridoma is specific for hen egg lysozyme 11-25 on A^d, and the G28.C9 hybridoma is specific for hen egg lysozyme 106-116 on E^d. […]

HLA-DR1 molecules [3] = assay: release of biotin-labeled hMBP(90-102) from HLA-DR1 without unlabeled antigenic peptide (assay I); format: binding, human; settings: for Relative Release: Table 36, fraction of o.d. of positive control (PBS only = 1.0; negative control = 0.0)
[4] = tested on: murine E^k MHC class II allele; assay: simultaneous assay, E^k allele (CH27 APC, TPc9.1 T hybridoma, THMCC82-103 or PGCC81-104); format: cell-based
Experimental: as §1, §2, §3, §4

[5] = Table 1, AE peptide 16 μM (second value), 0.4 μM HEL106-116, supernatant 1:4
[6] = Table 1, AE peptide 64 μM (first value), 0.4 μM HEL106-116, supernatant 1:4
[7] = Table 1, AE peptide 16 μM (second value), 0.075 μM THMCC82-103, supernatant 1:2
[8] = Table 1, AE peptide 64 μM (first value), 0.075 μM THMCC82-103, supernatant 1:2

| Substance | Times Baseline Response, E^d [2, 5] | Times Baseline Response, E^d [2, 6] | Relative Release (HLA-DR1 molecules [3]; AE101 series compound 64 μM) | Times Baseline Response, E^k [4, 7] | Times Baseline Response, E^k [4, 8] | other results |
| --- | --- | --- | --- | --- | --- | --- |
| unlabeled hMBP(90-102): human myelin basic protein (hMBP) peptide (90-102), antigenic peptide binding HLA-DR1, unlabeled (HLIRLFSRDAPGR) [reference compound] |  |  |  |  |  | release of biotin-labeled hMBP(90-102) (Relative Release) (HLA-DR1 molecules [1]; unlabeled hMBP(90-102) (250 μM) alone without AE101 series compounds): 0.81 |
| PKSAKPVSQMR [AE104] | 0.9 | 2.6 | 0.02 | 1.1 | 0.8 |  |
| KLPKSAKPVSQMR [AE103] | 1.3 | 3.4 | 0.01 | 0.7, 0.7 | 0.7, 0.7 |  |
| YRMKLPKSAKPVSQ [AE106] | 4.4 | 16.9 | −0.12 | 0.9 | 2.0 | release of hMBP(90-102) from HLA-DR1 (HLA-DR1 molecules [3]; AE peptide at 125 nM, additional experiments): completely release |
| YRMKLPKSAK [AE108] | 11.6 | 32.0 | 1.14 | 0.9 | 1.2 | Relative Release, With unlabeled hMBP(90-102), 1 μM (HLA-DR1 molecules [1]; Table 37, AE101 series compound 1 μM, unlabeled hMBP(90-102) 250 μM): 0.00; Relative Release, With unlabeled hMBP(90-102), 64 μM (HLA-DR1 molecules [1]; Table 37, AE101 series compound 64 μM, unlabeled hMBP(90-102) 250 μM): 0.14; Relative Release, Without unlabeled hMBP(90-102), 1 μM (HLA-DR1 molecules [3]; Table 37, AE101 series compound 1 μM, no unlabeled hMBP(90-102)): 0.52; Relative Release, Without unlabeled hMBP(90-102), 64 μM (HLA-DR1 molecules [3]; Table 37, AE101 series compound 64 μM, no unlabeled hMBP(90-102)): 0.31 |
| SAKPVSQMR [AE105] | 1.1 | 4.5 | 0.16 | 0.8 | 0.7 |  |
| Ac-YRMKLPKS-NH2 [AE112] | 26.2 | 42.8 |  | 3.2 | 15.3 |  |
| Ac-LRM[Orn]LPK-NH2 [AE210] |  |  |  |  |  | Times Baseline Response, E^d ([2]; Table 6, AE peptide 64 μM, supernatant 1:4): 6.6; Times Baseline Response, E^k ([4]; Table 6, AE peptide 64 μM, supernatant 1:4, reduced by a factor of 5): 9.0 |
| RMKLPKSAKPVSQMR [AE102] | 4.2 | 13.3 |  | 0.8 | 1.0 |  |
| Ac-YRMKLPKSA-NH2 [AE111] | 18.8 | 39.2 |  | 2.0 | 7.2 |  |
| Ac-YRMKLPKAAK-NH2 [AE127] |  |  |  |  |  | Times Baseline Response, E^d ([2]; Table 10, AE peptide 16 μM (second value), supernatant 1:2): 12.4; Times Baseline Response, E^d ([2]; Table 10, AE peptide 64 μM (first value), supernatant 1:2): 19.1; Times Baseline Response, E^k ([4]; Table 10, AE peptide 64 μM, supernatant 1:2 (first value)): 63.6; Times Baseline Response, E^k ([4]; Table 10, AE peptide 64 μM, supernatant 1:4 (second value)): 63.4 |
